From ChEMBL document CHEMBL5385915 (J Med Chem, 2024) come the findings set out here.

In assay [1] the test system is Mycobacterium tuberculosis variant bovis. Nature of the assay: Downregulation of inhA gene expression in Mycobacterium bovis BCG at 1 times MIC incubated for 8 hrs by RNA-sequencing analysis. It counts as functional.
Assay [2] has the same test system. Nature of the assay: Effect on nuoA-N gene expression in Mycobacterium bovis BCG at 1 times MIC incubated for 8 hrs by RNA-sequencing analysis. It counts as functional.
The test system of assay [3] is Mycobacterium tuberculosis variant bovis BCG. The experiment in a line: Inhibition of cell wall biosynthesis in Mycobacterium bovis BCG assessed as formation of cytoplasmic membrane phospholipids at 0.5 times MIC incubated for 12 hrs in presence of [14C]acetate by TLC based autoradiography analysis. It counts as functional, organism-based.
For assay [4], the system named is Mycobacterium tuberculosis variant bovis. Nature of the assay: Upregulation of mbtB gene expression in Mycobacterium bovis BCG at 1 times MIC incubated for 8 hrs by RNA-sequencing analysis. It counts as functional.
For assay [5] the test system is unchanged. The experiment in a line: Downregulation of desA2 gene expression in Mycobacterium bovis BCG at 1 times MIC incubated for 8 hrs by RNA-sequencing analysis. It counts as functional.
Assay [6] has the same test system. The experiment in a line: Upregulation of zur gene expression in Mycobacterium bovis BCG at 1 times MIC incubated for 8 hrs by RNA-sequencing analysis. It counts as functional.
The test system is the same in assay [7]. Nature of the assay: Downregulation of fabG1 gene expression in Mycobacterium bovis BCG at 1 times MIC incubated for 8 hrs by RNA-sequencing analysis. It counts as functional.
Assay [8] has the same test system. Nature of the assay: Effect on qcrA-C gene expression in Mycobacterium bovis BCG at 1 times MIC incubated for 8 hrs by RNA-sequencing analysis. It counts as functional.
The test system is the same in assay [9]. Nature of the assay: Downregulation of acpM gene expression in Mycobacterium bovis BCG at 1 times MIC incubated for 8 hrs by RNA-sequencing analysis. It counts as functional.
The test system is the same in assay [10]. Nature of the assay: Upregulation of ideR gene expression in Mycobacterium bovis BCG at 1 times MIC incubated for 8 hrs by RNA-sequencing analysis. It counts as functional.
Assay [11] concerns Mycobacterium tuberculosis variant bovis BCG. The experiment in a line: Inhibition of mycolic acid biosynthesis in Mycobacterium bovis BCG assessed as decrease in keto mycolic acid transfer onto cell wall arabinogalactan at 0.5 times MIC incubated for 12 hrs in presence of [14C]acetate by TLC based autoradiography analysis. It counts as functional, organism-based.
Assay [12] relates to Mycobacterium tuberculosis variant bovis. Nature of the assay: Downregulation of mmaA2 gene expression in Mycobacterium bovis BCG at 1 times MIC incubated for 8 hrs by RNA-sequencing analysis. It counts as functional.
The test system is the same in assay [13]. Nature of the assay: Effect on cydA-D gene expression in Mycobacterium bovis BCG at 1 times MIC incubated for 8 hrs by RNA-sequencing analysis. It counts as functional.
Assay [14] has as its system Mycobacterium tuberculosis variant bovis BCG. The experiment in a line: Inhibition of cell wall biosynthesis in Mycobacterium bovis BCG assessed as reduction in trehalose dimycolate accumulation at 0.5 times MIC incubated for 12 hrs in presence of [14C]acetate by TLC based autoradiography analysis. It counts as functional, organism-based.
For assay [15], the system named is Mycobacterium tuberculosis variant bovis. Nature of the assay: Effect on ctaC-E gene expression in Mycobacterium bovis BCG at 1 times MIC incubated for 8 hrs by RNA-sequencing analysis. It counts as functional.
Assay [16] shares this test system. The experiment in a line: Upregulation of mmpS5 gene expression in Mycobacterium bovis BCG at 1 times MIC incubated for 8 hrs by RNA-sequencing analysis. It counts as functional.
For assay [17] the test system is unchanged. The experiment in a line: Upregulation of mmpL5 gene expression in Mycobacterium bovis BCG at 1 times MIC incubated for 8 hrs by RNA-sequencing analysis. It counts as functional.
Assay [18] shares this test system. Nature of the assay: Upregulation of cmtR gene expression in Mycobacterium bovis BCG at 1 times MIC incubated for 8 hrs by RNA-sequencing analysis. It counts as functional.
Assay [19] shares this test system. Nature of the assay: Upregulation of tcrYX gene expression in Mycobacterium bovis BCG at 1 times MIC incubated for 8 hrs by RNA-sequencing analysis. It counts as functional.
For assay [20] the test system is unchanged. The experiment in a line: Downregulation of fbpA gene expression in Mycobacterium bovis BCG at 1 times MIC incubated for 8 hrs by RNA-sequencing analysis. It counts as functional.
Assay [21] shares this test system. The experiment in a line: Upregulation of mbtC gene expression in Mycobacterium bovis BCG at 1 times MIC incubated for 8 hrs by RNA-sequencing analysis. It counts as functional.
Assay [22] has the same test system. Nature of the assay: Downregulation of hadA gene expression in Mycobacterium bovis BCG at 1 times MIC incubated for 8 hrs by RNA-sequencing analysis. It counts as functional.
Assay [23] shares this test system. The experiment in a line: Upregulation of mbtD gene expression in Mycobacterium bovis BCG at 1 times MIC incubated for 8 hrs by RNA-sequencing analysis. It counts as functional.
The test system of assay [24] is Mycobacterium tuberculosis variant bovis BCG. The experiment in a line: Inhibition of late-stage mycolic acid biosynthesis in Mycobacterium bovis BCG at 5 times MIC incubated for 6 hrs by TLC based autoradiography analysis. It counts as functional, organism-based.
For assay [25], the system named is Mycobacterium tuberculosis variant bovis. The experiment in a line: Downregulation of mmaA3 gene expression in Mycobacterium bovis BCG at 1 times MIC incubated for 8 hrs by RNA-sequencing analysis. It counts as functional.
Assay [26] shares this test system. Nature of the assay: Effect on narG-J gene expression in Mycobacterium bovis BCG at 1 times MIC incubated for 8 hrs by RNA-sequencing analysis. It counts as functional.
Assay [27] has the same test system. The experiment in a line: Downregulation of fbpD gene expression in Mycobacterium bovis BCG at 1 times MIC incubated for 8 hrs by RNA-sequencing analysis. It counts as functional.
For assay [28], the system named is Mycobacterium tuberculosis variant bovis BCG. The experiment in a line: Inhibition of mycolic acid biosynthesis in Mycobacterium bovis BCG assessed as decrease in alpha mycolic acid transfer onto cell wall arabinogalactan at 0.5 times MIC incubated for 12 hrs in presence of [14C]acetate by TLC based autoradiography analysis. It counts as functional, organism-based.

The test system is the same in assay [29]. The experiment in a line: Inhibition of cell wall biosynthesis in Mycobacterium bovis BCG assessed as reduction in trehalose monomycolate accumulation at 0.5 times MIC incubated for 12 hrs in presence of [14C]acetate by TLC based autoradiography analysis. It counts as functional, organism-based.

SMILES strings stand for the structures. Active and inactive are the calls of the source. The calls are words filed in the database; no cut-off is given here.

With `CNC[C@@H]1C[C@H](c2ccc(OC(F)(F)F)cc2)N1Cc1ccccc1OC(F)(F)F` (racemic), the result in assay [1], in assay [2], in [4], in assay [5], in [6] and in assay [7] was Active. The outcome in assay [8], in assay [9], in assay [10], in assay [12], in assay [13] and in assay [15] was Active. The result in assay [16], in [17], in [18], in assay [19], in [20] and in assay [21] was Active. Further, the result in assay [22], in [23], in assay [25], in [26] and in assay [27] was Active. Also, the inhibition entry in assay [3] is “inactive”. The inhibition entry in assay [11], in assay [14], in [24], in [28] and in assay [29] was “Active” in each case.
Regarding `Brc1cc(Br)cc([C@H]2C[C@@H](CN3CCCC3)N2Cc2ccccc2Br)c1` (racemic), the inhibition entry in [24] was “Active”.
